Activity calls are given as the source filed them. Cut-off read from the data, not from the text of the source, for most assays here: active = IC50 of 10 µM or less and inactive = more.
Tests used:
Interleukin-8 [1] = target: T1, Interleukin-8 (Homo sapiens, UniProt P10145); assay: Dose Response confirmation of uHTS small molecule hits for cystic fibrosis induced NFkb Inhibitors in a PAF-induced IL8 counterscreen.; format: functional; settings: read-out: IC50_Mean
T1 sequence (P10145 whole entry): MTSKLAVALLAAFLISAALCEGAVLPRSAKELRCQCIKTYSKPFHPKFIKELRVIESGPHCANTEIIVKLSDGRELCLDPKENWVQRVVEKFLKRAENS

[2] = target: Sphingosine 1-phosphate receptor 4 (Homo sapiens, UniProt O95977); assay: Fluorescence dose response cell-based high throughput screening assay for antagonists of the Sphingosine 1-Phosphate Receptor 4 (S1P4). [Related pubchem assays: 1524 (Confirmation in triplicates.), 1510 (Primary screen.)]; format: functional
Chain of Sphingosine 1-phosphate receptor 4 (O95977 whole entry): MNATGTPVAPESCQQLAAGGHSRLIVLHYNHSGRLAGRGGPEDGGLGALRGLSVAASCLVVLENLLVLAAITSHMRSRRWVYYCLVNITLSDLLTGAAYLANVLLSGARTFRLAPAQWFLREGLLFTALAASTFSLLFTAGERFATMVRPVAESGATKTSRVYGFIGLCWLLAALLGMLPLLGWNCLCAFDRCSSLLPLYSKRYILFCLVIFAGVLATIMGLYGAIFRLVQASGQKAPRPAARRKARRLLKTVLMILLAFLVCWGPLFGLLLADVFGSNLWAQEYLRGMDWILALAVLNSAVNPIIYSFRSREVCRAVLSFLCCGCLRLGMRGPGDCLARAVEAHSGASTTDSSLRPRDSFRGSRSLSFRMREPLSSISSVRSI

[3] = target: T2, Microphthalmia-associated transcription factor (Homo sapiens, UniProt O75030); assay: TRPM1 promoter luciferase signal decrease, dose response, MITF inhibitor project, cell-based, SK-MEL-5, cherry-picked, set 3 (AID 493073); format: functional
T2 sequence (O75030 whole entry): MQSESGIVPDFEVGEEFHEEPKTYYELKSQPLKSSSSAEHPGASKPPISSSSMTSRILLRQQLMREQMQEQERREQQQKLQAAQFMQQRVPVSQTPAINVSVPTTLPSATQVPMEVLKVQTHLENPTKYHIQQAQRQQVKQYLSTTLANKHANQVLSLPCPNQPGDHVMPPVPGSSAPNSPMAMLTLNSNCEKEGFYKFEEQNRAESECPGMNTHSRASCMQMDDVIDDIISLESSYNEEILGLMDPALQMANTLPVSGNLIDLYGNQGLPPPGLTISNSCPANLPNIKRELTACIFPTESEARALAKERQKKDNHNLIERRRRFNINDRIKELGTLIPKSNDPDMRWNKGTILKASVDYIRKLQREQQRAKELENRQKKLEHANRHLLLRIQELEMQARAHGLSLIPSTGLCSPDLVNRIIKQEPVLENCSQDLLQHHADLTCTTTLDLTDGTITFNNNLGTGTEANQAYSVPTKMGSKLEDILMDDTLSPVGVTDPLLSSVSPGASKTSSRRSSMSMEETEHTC

Interleukin-8 [4] = target: T1, Interleukin-8; assay: Dose Response confirmation of uHTS small molecule hits for cystic fibrosis induced NFkb Inhibitors in a TNFa-induced IL8 counterscreen.; format: functional; settings: read-out: IC50_Mean
[5] = target: T3, High affinity choline transporter 1 (Homo sapiens, UniProt Q9GZV3); assay: CHT inhibitors, dose response, cell-based, 5-point CRC, membrane potential dye (AID 504840); format: functional
T3 sequence (Q9GZV3 whole entry): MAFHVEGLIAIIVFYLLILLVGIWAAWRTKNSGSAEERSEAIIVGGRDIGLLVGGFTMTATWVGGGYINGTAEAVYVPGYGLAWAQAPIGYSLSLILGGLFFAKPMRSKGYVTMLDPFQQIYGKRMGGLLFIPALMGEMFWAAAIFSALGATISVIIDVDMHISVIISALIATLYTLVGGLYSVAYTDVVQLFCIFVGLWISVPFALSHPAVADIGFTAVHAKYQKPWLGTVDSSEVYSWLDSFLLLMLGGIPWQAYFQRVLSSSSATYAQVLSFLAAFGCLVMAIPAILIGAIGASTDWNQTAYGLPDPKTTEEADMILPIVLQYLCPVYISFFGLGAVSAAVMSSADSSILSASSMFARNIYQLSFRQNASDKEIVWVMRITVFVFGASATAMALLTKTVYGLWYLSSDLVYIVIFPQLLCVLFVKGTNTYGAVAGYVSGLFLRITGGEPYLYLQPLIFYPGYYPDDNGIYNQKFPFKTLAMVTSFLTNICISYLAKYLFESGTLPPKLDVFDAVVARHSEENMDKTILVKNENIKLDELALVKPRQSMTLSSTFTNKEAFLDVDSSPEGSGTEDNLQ

[6] = target: Sphingosine 1-phosphate receptor 1 (Homo sapiens, UniProt P21453); format: functional;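 note: Tango beta-arrestin reporter U2OS cells stimulated with S1P near its EC80; inhibitor potency meaning antagonism of receptor activation by the natural agonist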
Chain of Sphingosine 1-phosphate receptor 1 (P21453 whole entry): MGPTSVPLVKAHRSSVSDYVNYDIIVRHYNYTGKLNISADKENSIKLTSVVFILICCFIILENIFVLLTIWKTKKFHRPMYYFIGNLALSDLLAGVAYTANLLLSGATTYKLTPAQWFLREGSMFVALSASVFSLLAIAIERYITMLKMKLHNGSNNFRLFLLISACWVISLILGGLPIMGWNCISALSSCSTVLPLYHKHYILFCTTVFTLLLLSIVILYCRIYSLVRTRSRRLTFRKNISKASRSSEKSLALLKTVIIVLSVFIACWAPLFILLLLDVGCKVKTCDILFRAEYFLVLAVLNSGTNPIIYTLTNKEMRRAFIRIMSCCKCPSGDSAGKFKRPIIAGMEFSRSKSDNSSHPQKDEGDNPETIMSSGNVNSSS

[7] = target: T4, Neuropeptide Y receptor type 2 (Homo sapiens, UniProt P49146); assay: NPY-Y2 antagonist potency, selectivity check, dose response, counter-screen for NPY-Y1 antagonist project, cell-based (AID 1278); format: functional
T4 sequence (P49146 whole entry): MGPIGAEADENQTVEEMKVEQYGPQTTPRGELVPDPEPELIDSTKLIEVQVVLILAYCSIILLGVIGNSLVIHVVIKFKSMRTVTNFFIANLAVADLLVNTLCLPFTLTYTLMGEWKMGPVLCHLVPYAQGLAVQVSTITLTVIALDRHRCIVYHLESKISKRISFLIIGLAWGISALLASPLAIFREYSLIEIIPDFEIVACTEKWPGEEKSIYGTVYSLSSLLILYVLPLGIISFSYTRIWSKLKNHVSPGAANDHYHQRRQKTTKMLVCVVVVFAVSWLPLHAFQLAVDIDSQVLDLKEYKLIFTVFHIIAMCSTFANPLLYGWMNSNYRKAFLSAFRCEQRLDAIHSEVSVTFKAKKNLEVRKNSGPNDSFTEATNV

[8] = target: Melanin-concentrating hormone receptor 1 (Homo sapiens, UniProt Q99705); assay: Fluorescence-based counterscreen for antagonists of the G-protein coupled receptor 7 (GPR7): cell-based high throughput dose response assay to identify antagonists of the melanin-concentrating hormone receptor 1 (MCHR1).; format: functional
Chain of Melanin-concentrating hormone receptor 1 (Q99705 whole entry): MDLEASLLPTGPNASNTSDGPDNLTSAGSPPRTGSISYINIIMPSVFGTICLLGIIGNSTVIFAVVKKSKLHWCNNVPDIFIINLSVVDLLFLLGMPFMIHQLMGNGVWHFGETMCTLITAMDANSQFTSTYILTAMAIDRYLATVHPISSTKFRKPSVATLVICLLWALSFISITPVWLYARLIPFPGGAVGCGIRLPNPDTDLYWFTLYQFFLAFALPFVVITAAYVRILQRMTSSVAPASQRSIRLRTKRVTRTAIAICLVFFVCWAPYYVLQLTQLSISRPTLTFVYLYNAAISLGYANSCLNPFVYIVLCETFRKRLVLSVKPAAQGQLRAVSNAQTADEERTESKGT

[9] = target: T5, Neuropeptides B/W receptor type 1 (Homo sapiens, UniProt P48145); assay: Fluorescence-based dose response cell-based high throughput screening assay to identify antagonists of the G-protein coupled receptor 7 (GPR7). [Related pubchem assays: 1952 (Screening assay (GPR7 antagonists).), 1880 (Summary AID.)]; format: functional
T5 sequence (P48145 whole entry): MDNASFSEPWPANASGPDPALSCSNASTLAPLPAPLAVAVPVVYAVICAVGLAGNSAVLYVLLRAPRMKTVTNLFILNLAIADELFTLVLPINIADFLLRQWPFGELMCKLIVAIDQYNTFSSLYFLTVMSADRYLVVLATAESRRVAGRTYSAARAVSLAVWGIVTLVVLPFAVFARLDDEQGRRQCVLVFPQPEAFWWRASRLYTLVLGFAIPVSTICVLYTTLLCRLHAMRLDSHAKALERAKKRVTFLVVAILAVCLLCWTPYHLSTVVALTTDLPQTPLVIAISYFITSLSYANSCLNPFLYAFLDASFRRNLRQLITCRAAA

[10] = target: T6, Neuropeptide Y receptor type 1 (Homo sapiens, UniProt P25929); assay: NPY-Y1 receptor antagonist potency, dose response, cell-based (AID 1277); format: functional
T6 sequence (P25929 whole entry): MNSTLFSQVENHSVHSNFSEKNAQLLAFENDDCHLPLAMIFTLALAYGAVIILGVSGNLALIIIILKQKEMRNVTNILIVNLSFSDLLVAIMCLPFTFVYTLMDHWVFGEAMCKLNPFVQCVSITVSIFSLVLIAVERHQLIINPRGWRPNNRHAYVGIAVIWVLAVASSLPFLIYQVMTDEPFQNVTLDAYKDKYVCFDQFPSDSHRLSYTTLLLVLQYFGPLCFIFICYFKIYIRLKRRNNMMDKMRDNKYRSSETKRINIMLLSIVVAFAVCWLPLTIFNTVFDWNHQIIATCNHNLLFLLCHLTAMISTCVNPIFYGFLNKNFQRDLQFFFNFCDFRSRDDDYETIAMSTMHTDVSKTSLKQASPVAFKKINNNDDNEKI

Estrogen receptor = target: T7, Estrogen receptor (Homo sapiens, UniProt P03372); assay: potentiators of ERα–SRC-1 coactivator binding, dose response, biochemical, TR-FRET, ERα LBD (AID 737)
T7 sequence (P03372 whole entry): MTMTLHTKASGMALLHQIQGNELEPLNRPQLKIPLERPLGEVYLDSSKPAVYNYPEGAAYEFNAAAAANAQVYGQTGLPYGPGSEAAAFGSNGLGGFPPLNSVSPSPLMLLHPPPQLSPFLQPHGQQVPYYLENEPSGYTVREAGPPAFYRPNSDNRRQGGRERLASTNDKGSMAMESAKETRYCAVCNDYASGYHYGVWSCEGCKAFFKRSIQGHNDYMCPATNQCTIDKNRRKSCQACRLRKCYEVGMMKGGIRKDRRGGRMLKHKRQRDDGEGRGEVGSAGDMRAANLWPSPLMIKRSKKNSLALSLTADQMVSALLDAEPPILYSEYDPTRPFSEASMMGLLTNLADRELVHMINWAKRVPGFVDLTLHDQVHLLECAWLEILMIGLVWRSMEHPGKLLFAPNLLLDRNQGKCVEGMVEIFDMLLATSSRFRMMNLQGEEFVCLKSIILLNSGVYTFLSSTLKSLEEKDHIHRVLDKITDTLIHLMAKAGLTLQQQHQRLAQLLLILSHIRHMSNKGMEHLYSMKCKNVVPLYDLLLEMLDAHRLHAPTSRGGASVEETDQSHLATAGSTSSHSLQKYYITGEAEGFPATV

SMILES: CN(CCC#N)C(=O)COC(=O)c1ccccc1C(=O)c1ccc(Cl)c([N+](=O)[O-])c1
- IC50 (Interleukin-8 [1]): 0.967 µM (active)
- IC50 [2]: 2.34 µM (active)
- AC50 [3]: 10.9 µM (active)
- IC50 (Interleukin-8 [4]): 43 µM (inactive)
- IC50 [5]: 7.81 µM (active)
- IC50 [6]: 9.72 µM (active)

SMILES: COc1ccc(-c2noc(CN3CCCCC3c3nccn3C)n2)cc1 (stereo unspecified)
- IC50 [7]: > 35 µM (not active)
- IC50 [8]: > 43.8 µM (not active)
- IC50 [9]: > 43.8 µM (not active)
- IC50 [10]: > 35 µM (not active)

SMILES: O=C1c2ccccc2C(=O)N1CCCc1nc2ccccc2c(=O)n1CCCn1ccnc1
- EC50 (Estrogen receptor): 23.5 µM (active)

Reference: ChEMBL document CHEMBL1201862, “PubChem BioAssay data set” (2004)
